Laboratory results: patent publication US11549147B2, “Treatment of atopic dermatitis with tradipitant” (VANDA PHARMACEUTICALS INC., priority 2017, dated 2023)

Test system: treatment-resistant pruritus associated with atopic dermatitis, high or low baseline IgE
Assay: Exploratory analysis of study NCT02651714 by baseline IgE level (Example 4)
Format: in vivo, human
Parameters: Average Itch NRS / Average Itch NRS, Diff / Sleep Disturbance / Extension / Excoriations, Diff / Erythema / Skin dryness / Skin dryness, Diff / Itch / Itch, Diff / Insomnia / Insomnia, Diff / CGIC / CGIC, Diff / VRS / VRS, Diff / Average Itch VAS / Average Itch VAS, Diff / worst Itch VAS, Diff: scale not given here
Conditions: 85 mg bid; for Average Itch NRS, Diff / Average Itch VAS, Diff / CGIC, Diff / EASI, Diff / Erythema, Diff / Excoriations, Diff / Extension, Diff / Insomnia, Diff / Intensity, Diff / Itch, Diff / Lichenification, Diff / Log EASI, Diff / Objective SCORAD, Diff / Oozing/crusting, Diff / PBI, Diff / PGIC AD, Diff / PGIC ITCH, Diff / SCORAD Total, Diff / Skin dryness, Diff / Sleep Disturbance, Diff / Subjective SCORAD, Diff / VRS, Diff / Worst Itch NRS Day, Diff / Worst Itch NRS Night, Diff / Worst Itch NRS, Diff / edema/Papules, Diff / worst Itch VAS >= 30, Diff / worst Itch VAS, Diff / worst ItchVAS >= 40, Diff / EASI 75, Diff / SCORAD 50, Diff: Diff tradipitant vs placebo; for Average Itch NRS / Average Itch VAS / EASI / Log EASI / Objective SCORAD / SCORAD Total / Sleep Disturbance / Subjective SCORAD / VRS / Worst Itch NRS / Worst Itch NRS Day / Worst Itch NRS Night / worst Itch VAS: week 8, vs baseline; for worst Itch VAS >= 30 / worst ItchVAS >= 40: Fisher; for Erythema / Excoriations / Extension / Intensity / Lichenification / Oozing/crusting / Skin dryness / edema/Papules: objective SCORAD parameter; for Insomnia / Itch: subjective SCORAD parameter
Experimental: In the study described above in Example 3, an exploratory analysis is conducted to analyze Immunoglobulin E (IgE) levels and the effect of treatment with tradipitant on atopic dermatitis and pruritus. For purposes of the analysis, study participants having an IgE level greater than or equal to 100 kU/L are deemed to have a high IgE level, while study participants having an IgE level of less than 100 kU/L are deemed to have a low IgE level. The baseline mean and range SCORAD total for each of the total study population, the high IgE group, and the low IgE group are shown below in Table 5.
The mean and range of SCORAD totals shown in Table 5 illustrate that the study population spans different strata of disease severity, from mild to severe. Table 5 also illustrates the similarity in disease severity between the high IgE and low IgE groups. Table 6 (below) presents the study results of tradipitant in treatment-resistant pruritus associated with atopic dermatitis in individuals having high baseline IgE levels (IgE≥100 kU/L), while Table 7 (below) presents the study results of tradipitant in treatment-resistant pruritus associated with atopic dermatitis in individuals having low baseline IgE levels (IgE<100 kU/L). The data in Tables 6-7 represent a separation by IgE level of the data appearing in Table 4 above.
For purposes of the present analysis, individuals having an IgE level greater than or equal to 100 kU/L are considered to have high IgE levels, while individuals having an IgE level of less than 100 kU/L are considered to have low IgE levels.

[1] = high baseline IgE (≥100 kU/L), week 8
[2] = high baseline IgE (≥100 kU/L), week 8, LOCF
[3] = low baseline IgE (<100 kU/L), week 8
[4] = low baseline IgE (<100 kU/L), week 8, LOCF
[5] = high baseline IgE (≥100 kU/L), ITT, week 8
[6] = high baseline IgE (≥100 kU/L), ITT
[7] = high baseline IgE (≥100 kU/L), ITT, week 8, LOCF
[8] = low baseline IgE (<100 kU/L), ITT, week 8
[9] = low baseline IgE (<100 kU/L), ITT
[10] = low baseline IgE (<100 kU/L), ITT, week 8, LOCF

Compound: O=C(c1ccccc1Cl)c1cccnc1-c1nnn(Cc2cc(C(F)(F)F)cc(C(F)(F)F)c2)c1-c1ccncc1 [Tradipitant]
- Average Itch NRS, Diff [1]: −1.6
- Average Itch VAS, Diff [1]: −14.97
- CGIC, Diff [1]: −0.96
- EASI, Diff [1]: −1.13
- Erythema, Diff [1]: −0.15
- Excoriations, Diff [1]: −0.56
- Extension, Diff [1]: −0.72
- Insomnia, Diff [1]: −1.12
- Intensity, Diff [1]: −1.75
- Itch, Diff [1]: −2.04
- Lichenification, Diff [1]: −0.27
- Log EASI, Diff [1]: −0.46
- Objective SCORAD, Diff [1]: −6.4
- Oozing/crusting, Diff [1]: −0.23
- PBI, Diff [1]: 0.67
- PGIC AD, Diff [1]: −0.91
- PGIC ITCH, Diff [1]: −0.82
- SCORAD Total, Diff [1]: −9.9
- Skin dryness, Diff [1]: −0.27
- Sleep Disturbance, Diff [1]: −1.7
- Subjective SCORAD, Diff [1]: −3.1
- VRS, Diff [1]: −0.5597
- Worst Itch NRS Day, Diff [1]: −2.06
- Worst Itch NRS Night, Diff [1]: −2.14
- Worst Itch NRS, Diff [1]: −2.1
- edema/Papules, Diff [1]: −0.39
- worst Itch VAS >= 30, Diff [1]: 36.3%
- worst Itch VAS, Diff [1]: −25.7
- worst ItchVAS >= 40, Diff [1]: 28.4%
- EASI 75, Diff [2]: 18.3%
- SCORAD 50, Diff [2]: 36.6%
- Average Itch NRS, Diff [3]: 0.4
- Average Itch VAS, Diff [3]: 6.8
- CGIC, Diff [3]: −0.3
- EASI, Diff [3]: −0.47
- Erythema, Diff [3]: −0.31
- Excoriations, Diff [3]: −0.24
- Extension, Diff [3]: −0.94
- Insomnia, Diff [3]: 0.29
- Intensity, Diff [3]: −0.99
- Itch, Diff [3]: 0.13
- Lichenification, Diff [3]: −0.03
- Log EASI, Diff [3]: −0.21
- Objective SCORAD, Diff [3]: −3.7
- Oozing/crusting, Diff [3]: −0.18
- PBI, Diff [3]: 0.5
- PGIC AD, Diff [3]: −0.6
- PGIC ITCH, Diff [3]: −0.48
- SCORAD Total, Diff [3]: −2.8
- Skin dryness, Diff [3]: −0.40
- Sleep Disturbance, Diff [3]: 0.2
- Subjective SCORAD, Diff [3]: 0.43
- VRS, Diff [3]: −0.23
- Worst Itch NRS Day, Diff [3]: 0.43
- Worst Itch NRS Night, Diff [3]: 0.08
- Worst Itch NRS, Diff [3]: 0.3
- edema/Papules, Diff [3]: 0.08
- worst Itch VAS >= 30, Diff [3]: −3.2%
- worst Itch VAS, Diff [3]: −0.9
- worst ItchVAS >= 40, Diff [3]: 5.6%
- EASI 75, Diff [4]: 1.8%
- SCORAD 50, Diff [4]: 7.7%
- CGIC [5]: 2.6
- PBI [5]: 1.7
- PGIC AD [5]: 3.0
- PGIC ITCH [5]: 2.7
- Average Itch NRS [6]: −3.4
- Average Itch VAS [6]: −41.9
- EASI [6]: −3.78
- Log EASI [6]: −0.8
- Objective SCORAD [6]: −11.7
- SCORAD Total [6]: −20.3
- Sleep Disturbance [6]: −3.5
- Subjective SCORAD [6]: −8.7
- VRS [6]: −1.529
- Worst Itch NRS [6]: −3.6
- Worst Itch NRS Day [6]: −3.7
- Worst Itch NRS Night [6]: −3.8
- worst Itch VAS [6]: −43.9
- worst Itch VAS >= 30 [5]: 57.9%
- worst ItchVAS >= 40 [5]: 50.0%
- EASI 75 [7]: 23.7%
- SCORAD 50 (patients with at least a 50 percent reduction of SCORAD) [7]: 47.4%
- SCORAD 50 (patients with at least a 50 percent reduction of SCORAD) (high baseline IgE (≥100 kU/L), ITT, week 8, LOCF, listed as tradipitant): 47%
- CGIC [8]: 2.7
- PBI [8]: 1.98
- PGIC AD [8]: 2.4
- PGIC ITCH [8]: 2.3
- Average Itch NRS [9]: −2.9
- Average Itch VAS [9]: −39.3
- EASI [9]: −2.7
- Log EASI [9]: −0.67
- Objective SCORAD [9]: −13.1
- SCORAD Total [9]: −19.9
- Sleep Disturbance [9]: −3.0
- Subjective SCORAD [9]: −7.2
- VRS [9]: −1.54
- Worst Itch NRS [9]: −2.9
- Worst Itch NRS Day [9]: −2.9
- Worst Itch NRS Night [9]: −3.0
- worst Itch VAS [9]: −44
- worst Itch VAS >= 30 [8]: 55.6%
- worst ItchVAS >= 40 [8]: 55.6%
- EASI 75 [10]: 19.4%
- SCORAD 50 [10]: 40.0%
- Erythema [5]: −0.46
- Excoriations [5]: −0.80
- Extension [5]: −2.4
- Intensity [5]: −3.2
- Lichenification [5]: −0.42
- Oozing/crusting [5]: −0.53
- Skin dryness [5]: −0.62
- edema/Papules [5]: −0.62
- Erythema [8]: −0.74
- Excoriations [8]: −0.74
- Extension [8]: −1.9
- Intensity [8]: −3.6
- Lichenification [8]: −0.49
- Oozing/crusting [8]: −0.61
- Skin dryness [8]: −0.73
- edema/Papules [8]: −0.43
- treatment effect in itch and disease severity, high IgE group compared to low IgE group (regardless of IgE cutoff (50 to 300 kU/L)): consistently stronger treatment effect
- Insomnia [5]: −4.0
- Itch [5]: −4.7
- Insomnia [8]: −3.2
- Itch [8]: −4.0
